Source: patent US8822539B2, “Combination therapies: inhibitors of GABA transaminase and NKCC1” (Children's Medical Center Corporation, priority 2010, dated 2014)

Experiments:
NKCC1 = molecular target: T1, NKCC1 (Rattus norvegicus, UniProt E9PTX9); settings: bumetanide 0.1 mg/kg, rats, prior work; cited from earlier work
T1 construct: host or cells: rat brain, in vivo (endogenous protein)
T1 sequence (E9PTX9 1-1203): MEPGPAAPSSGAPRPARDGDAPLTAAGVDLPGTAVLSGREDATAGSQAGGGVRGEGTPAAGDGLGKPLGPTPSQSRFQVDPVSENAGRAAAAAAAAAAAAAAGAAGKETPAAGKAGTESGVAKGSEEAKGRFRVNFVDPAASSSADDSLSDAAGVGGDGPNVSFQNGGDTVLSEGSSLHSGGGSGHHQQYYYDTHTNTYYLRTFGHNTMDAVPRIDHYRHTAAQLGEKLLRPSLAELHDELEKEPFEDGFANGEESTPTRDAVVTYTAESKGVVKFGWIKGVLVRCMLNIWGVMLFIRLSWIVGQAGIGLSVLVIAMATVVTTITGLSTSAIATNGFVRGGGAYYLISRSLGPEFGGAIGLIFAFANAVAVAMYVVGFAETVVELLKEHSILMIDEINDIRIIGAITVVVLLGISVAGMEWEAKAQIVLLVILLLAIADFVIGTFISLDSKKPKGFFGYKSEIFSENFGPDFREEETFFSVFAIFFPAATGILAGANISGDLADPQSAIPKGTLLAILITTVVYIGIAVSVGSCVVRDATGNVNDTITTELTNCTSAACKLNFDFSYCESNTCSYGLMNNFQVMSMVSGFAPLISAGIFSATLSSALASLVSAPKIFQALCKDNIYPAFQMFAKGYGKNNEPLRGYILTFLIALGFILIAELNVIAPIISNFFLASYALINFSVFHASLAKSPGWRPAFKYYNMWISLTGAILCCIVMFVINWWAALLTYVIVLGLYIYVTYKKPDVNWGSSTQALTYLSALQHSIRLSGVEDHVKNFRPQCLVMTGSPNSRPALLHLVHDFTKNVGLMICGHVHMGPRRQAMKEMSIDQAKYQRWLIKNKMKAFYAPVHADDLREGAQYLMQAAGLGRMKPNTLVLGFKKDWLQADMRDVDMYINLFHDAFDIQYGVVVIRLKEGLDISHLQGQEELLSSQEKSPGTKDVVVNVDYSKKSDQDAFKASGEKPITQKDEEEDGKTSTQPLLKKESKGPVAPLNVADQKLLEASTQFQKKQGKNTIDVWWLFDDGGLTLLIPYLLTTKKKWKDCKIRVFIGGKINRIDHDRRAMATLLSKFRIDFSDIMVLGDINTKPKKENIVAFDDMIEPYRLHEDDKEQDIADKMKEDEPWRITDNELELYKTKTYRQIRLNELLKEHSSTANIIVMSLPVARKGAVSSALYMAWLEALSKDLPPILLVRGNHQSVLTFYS

Sprague Dawley rats = experiment: rat model of vigabatrin (VGB)-induced retinal toxicity, histopathologic analysis of retina; settings: for VGB-induced retinal toxicity: 30 days
Protocol: We closely follow the methods of Duboc, et al (12) that recommend 30 days of treatment in juvenile rats to induce a lesion.
Model of VGB-induced toxicity. VGB is administered to young adult/juvenile Sprague Dawley rats between 6-7 weeks of age for a period of 30 days. VGB is dissolved in 0.9% NaCl at 100 mg/mL and injected intraperitoneally (i.p.) daily for 30 days at doses of 5 and 3 mg/day as described for treatment of animal epilepsy (26).
Treatment groups. We use of 15 animals per group. […] The doses are daily.
Histopathologic analysis of retina. As per established protocols eye cups are fixed overnight at 4° C. in 4% (wt/vol) paraformaldehyde in phosphate buffered saline PBS) 0.01M, pH 7.4. After cryoprotection in PBS containing successively 10, 20, and 30% sucrose at 4° C., the tissue is embedded in OCT (Labonord, Villeneuve d'Ascq, France). A preliminary analysis of general retinal morphology is performed on vertical sections (8-10 μm thickness) using hematoxylin and eosin. Additional sections are permeabilized for 5 minutes in PBS containing 0.1% Triton X-100 (Sigma, St. Louis, Mo.), rinsed, and incubated in PBS containing 1% bovine serum albumin (Eurobio, Les-Ulis, France), 0.1% Tween 20 (Sigma), and 0.1% sodium azide (Merck, Fontenay-Ss-Bois) for 2 hours at room temperature. The primary antibody is added to the solution and incubated for 2 hours at room temperature. Antibodies were anti-GFAP rabbit polyclonal antibody (1:400; DAKO), and antiactive caspase-3 rabbit polyclonal antibody (1:100; Cell Signaling Technology, Beverly, Mass.). […] Cone photoreceptors are stained with peanut agglutinin lectin coupled to Texas Red (PNA, 1:40; Sigma). […] The dye, diamidiphenyl-indole (DAPI), is added to any incubation solution. Sections are mounted with Fluorsave reagent (Calbiochem, San Diego, Calif.). PNA-stained cone inner/outer segments are counted on retinal sections in eight consecutive 300 μm-wide optical windows on each side of the optic nerve under the 40× objective. Areas with a disorganized outer nuclear layer are specifically excluded from this count. Vertical sections are stained with hematoxylin and eosin.
Tissue Preparation for Electron Microscopy. […] The tissue is rinsed in cacodylate 0.15M and postfixed in 1% osmium tetroxide (Electron MicroscopySciences) for 1 hour. After dehydration in ethanol, and propylene oxide, the tissue is embedded in epon. Semithin sections are stained with methylene blue and ultrathin sections (80 nm) contrasted with lead citrate and uranyl acetate.
Data analysis. For quantification we use the same outcome measures of retinal injury as Duboc et al and Jammoul et al (12, 25). Vertical sections along the dorsoventral axis are selected at the optic nerve. After DAPI nuclear staining, the lengths of disorganized retinal areas are measured; GFAP immunostaining is used for detection and quantification of retinal areas with reactive gliosis. The cone photoreceptor density is calculated after cone arrestin immunostaining to visualize the inner/outer segments of cone photoreceptors; areas with disorganized retinal layering were excluded.

Sprague Dawley rat pups = experiment: rodent model of VGB-induced IME (white matter injury and vacuolation); format: in vivo
Protocol: Model of VGB-induced IME. We adhere to the same protocol used by Ovation in recent studies. Sprague Dawley rat pups are treated from postnatal day 4-25 with VBG (50 mg/kg) or vehicle. This is administered by oral gavage to rats starting on PND 4. The single dose of 50 mg/kg was selected on the basis of the previous study in which it produced vacuolar lesions (24, 31). Rats are sacrificed at P25 and perfused with 4% paraformaldehyde. Brains are cryoprotected in sucrose for frozen sectioning.
Treatment groups. We use an n of 15 animals per group. Vehicle only, VGB alone, or VGB and bumetanide. The doses are daily.
Histological and immunocytochemical methods. Using our published protocols for quantification of white matter myelination (29) we perform MBP staining. 16 μm coronal cryostat sections (Leica CM3050 S) were collected on Superfrost Plus slides. […]
Data analysis. Fluorescence images are obtained on a Zeiss Axioscope, using a Spot digital camera and Advanced 4.5 software (Diagnostic Instruments). […] ImageJ software is used to quantitate MBP and O4 immunostaining as a proportion of the white matter capsule area (29). This methodology was validated with ImageJ software quantitation of total area of MBP immunostaining within each 2.4 mm2 field. […]

[1] = FDA not approvable action 1998; cited from earlier work
[2] = bumetanide higher dose (0.2 mg/kg)

SMILES | suppression of NKCC1 in brain (NKCC1) | VGB-induced retinal toxicity (Sprague Dawley rats; bumetanide 0.2 mg/kg dose with VGB) | adverse effects of diuresis (Sprague Dawley rats; [2]) | effects on body weight or skin turgor (Sprague Dawley rats; [2]) | VGB-induced retinal toxicity (Sprague Dawley rats; lower dose of bumetanide 0.1 mg/kg i.p. daily with VGB 5 mg/day) | protection against VGB-induced white matter injury / IME (Sprague Dawley rat pups; higher dose of bumetanide (0.2 mg/kg) with VGB 50 mg/kg/day) | protection against VGB-induced white matter injury / IME (Sprague Dawley rat pups; lower dose of bumetanide (0.1 mg/kg/day i.p.) with VGB 50 mg/kg/day, PND 4-25) | incidence of permanent vision loss [1] | vigabatrin toxicity in retina (histopathology) (Sprague Dawley rats; VGB i.p. daily for 30 days, juvenile rats)
CCCCNc1cc(C(=O)O)cc(S(N)(=O)=O)c1Oc1ccccc1 [bumetanide, Bumetanide] | effectively suppresses NKCC1 in brain | additional efficacy | no adverse effects of any modest diuresis | nor any significant effects on body weight or skin turgor | significant decrease in toxicity | additional efficacy | shows protective efficacy |  | 
C=CC(N)CCC(=O)O (stereo not drawn) [vigabatrin, gamma-vinyl-GABA] |  |  |  |  |  |  |  | 30% | photoreceptor injury/loss and vacuolization
